Source: ChEMBL document CHEMBL1201862, “PubChem BioAssay data set” (2004)
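Five concentrations, 48 hours, 96-well plates. GI50 marks 50% less growth.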 The source made the active and inactive calls. No stated cut-off is given here; in the data, active = GI50 up to about 1.1 µM and inactive = higher.

Key:
Experiment in all cases: DTP human tumour cell line panel, 48 h
HT-29 = tested on: HT-29
HCT-15 = tested on: HCT-15
NCI-H23 = tested on: NCI-H23
SK-MEL-5 = tested on: SK-MEL-5
UO-31 = tested on: UO-31
U-251 = tested on: U-251
SF-268 = tested on: SF-268
SF-539 = tested on: SF-539
TK-10 = tested on: TK-10
SF-295 = tested on: SF-295
COLO 205 = tested on: COLO 205
K562 = tested on: K562
SK-MEL-28 = tested on: SK-MEL-28
786-0 = tested on: 786-0
M14 = tested on: M14
HCC 2998 = tested on: HCC 2998
HL-60 = tested on: HL-60
NCI-H226 = tested on: NCI-H226
EKVX = tested on: EKVX
SR = tested on: SR

Structure (SMILES) | GI50 (HT-29) | GI50 (HCT-15) | GI50 (NCI-H23) | GI50 (SK-MEL-5) | GI50 (UO-31) | GI50 (U-251) | GI50 (SF-268) | GI50 (SF-539) | GI50 (TK-10) | GI50 (SF-295) | GI50 (COLO 205) | GI50 (K562) | GI50 (SK-MEL-28) | GI50 (786-0) | GI50 (M14) | GI50 (HCC 2998) | GI50 (HL-60) | GI50 (NCI-H226) | GI50 (EKVX) | GI50 (SR)
Cc1cc(C)c(S(=O)(=O)N(CCCCCCN)OCCCN)c(C)c1 | 15.1 µM (inactive) | 17.7 µM | 17.1 µM (inactive) | 19.2 µM (inactive) | 19.5 µM (inactive) | 16.2 µM (inactive) | 16.5 µM (inactive) | 18.2 µM (inactive) | 15.4 µM (inactive) | 18.5 µM (inactive) | 17.3 µM (inactive) | 26.4 µM (inactive) | 18.1 µM (inactive) | 16 µM (inactive) | 20.9 µM (inactive) | 16.6 µM (inactive) | 12.3 µM (inactive) | 19.6 µM (inactive) | 15.3 µM (inactive) | –
O=C1OC(=O)c2c1cc1cc3c(cc1c2-c1ccc2c(c1)OCO2)OCO3 | > 100 µM (inactive) | > 100 µM | > 100 µM (inactive) | > 100 µM (inactive) | > 100 µM (inactive) | > 100 µM (inactive) | > 100 µM (inactive) | > 100 µM (inactive) | > 100 µM (inactive) | > 100 µM (inactive) | > 100 µM (inactive) | > 100 µM (inactive) | > 100 µM (inactive) | 22 µM (inactive) | > 100 µM (inactive) | > 100 µM (inactive) | > 100 µM (inactive) | > 100 µM (inactive) | – | –
COC(C(O)c1ccc2c(c1)OCO2)P(=O)(c1ccccc1)c1ccccc1 (stereo not given) | > 100 µM (inactive) | – | 30.8 µM (inactive) | > 100 µM (inactive) | > 100 µM (inactive) | > 100 µM (inactive) | > 100 µM (inactive) | > 100 µM (inactive) | > 100 µM (inactive) | > 10 µM (inactive) | – | 60.3 µM (inactive) | > 100 µM (inactive) | > 100 µM (inactive) | > 100 µM (inactive) | – | > 100 µM (inactive) | 73.1 µM (inactive) | > 100 µM (inactive) | > 100 µM (inactive)
O=C(NNc1ccc([N+](=O)[O-])cc1)C1OC(CO)C(O)C1O (stereo not given) | 59.8 µM (inactive) | 54.8 µM | > 100 µM (inactive) | > 100 µM (inactive) | > 100 µM (inactive) | > 100 µM (inactive) | > 100 µM (inactive) | > 100 µM (inactive) | > 100 µM (inactive) | > 100 µM (inactive) | > 100 µM (inactive) | 67 µM (inactive) | > 100 µM (inactive) | 26.4 µM (inactive) | > 100 µM (inactive) | > 100 µM (inactive) | 58.9 µM (inactive) | > 100 µM (inactive) | > 100 µM (inactive) | –
Cc1ncc2c(n1)CCC1=C2OS(=O)(=O)CC1N(C)C (stereo not given) | > 100 µM (inactive) | – | > 100 µM (inactive) | 70 µM (inactive) | > 100 µM (inactive) | > 100 µM (inactive) | > 100 µM (inactive) | > 100 µM (inactive) | > 100 µM (inactive) | – | > 100 µM (inactive) | > 100 µM (inactive) | > 100 µM (inactive) | > 100 µM (inactive) | 95.9 µM (inactive) | – | > 100 µM (inactive) | > 100 µM (inactive) | > 100 µM (inactive) | > 100 µM (inactive)
CCOC(=O)C1CCn2c(nc3c(=O)n(C)c(=O)n(C)c32)S1 (stereo not given) | > 100 µM (inactive) | > 100 µM | > 100 µM (inactive) | > 100 µM (inactive) | – | > 100 µM (inactive) | > 100 µM (inactive) | > 100 µM (inactive) | > 100 µM (inactive) | > 100 µM (inactive) | – | > 100 µM (inactive) | – | – | > 100 µM (inactive) | – | > 100 µM (inactive) | > 100 µM (inactive) | > 100 µM (inactive) | > 100 µM (inactive)
